Assays:
NCI-H716 and STC-1 cells = test: GLP-1 expression in enteroendocrine cell lines after 48 h bile acid treatment; type: cell-based; conditions: 50 μM, through the action of TGR5 and FXR, FIG. 6
Method: NCI-H716 and STC-1 cells were treated with 50 μM hyocholic acid, hyodeoxycholic acid, taurohyodeoxycholic acid, glycohyodeoxycholic acid, taurohyocholic acid, glycohyocholic acid and 19 kinds of other bile acids for 48 hours. […] (a) GLP-1 transcription was measured using real-time PCR, see FIG. 6A. (b) GLP-1 secretion was measured using ELISA, see FIG. 6B. (c) NCI-H716 and STC-1 and TGR5 knockdown cells thereof were treated with 6 kinds of hyocholic acids for 24 h and intracellular GLP-1, p-CREB and total CREB were measured using western blotting. (d) FXR protein concentration in nuclear and cytoplasmic fractions ofNCI-H716 cells after 24 h treatment with 50 μM chenodeoxycholic acid or 5-cholic acid in the presence and absence of hyocholic acid. See FIG. 6E. * P<0.05, compared with the control.

[1] = test system: fat-induced obesity mouse model; test: High-fat diet induced obesity mouse model, triglyceride after 8 weeks of gavage; type: in vivo, mice; conditions: for triglyceride levels versus simple high-fat diet group: 50 mg/kg/day by gavage with high-fat diet for 8 weeks; for liver triglyceride / serum triglyceride: after 8 weeks of intervention; for liver triglyceride: FIG. 2; for serum triglyceride: FIG. 3
Method: In the fat-induced obesity mouse model, hyocholic acid and hyodeoxycholic acid were administered by gavage at a dose of 50 mg/kg/day while feeding high-fat diet (HFD) for 8 weeks. […] The increase of hyocholic acid and hyodeoxycholic acid in mice can effectively improve the dyslipidemia in mice caused by high fat.

NCI-H716 cells = test: GLP-1 release into culture medium of NCI-H716 cells; type: cell-based; conditions: 50 μM, FIG. 5
Method: NCI-H716 cells were cultured and treated with 50 μM hyocholic acid and hyocholic acid derivatives, and a reported TGR5 agonist INT-777, and the levels of GLP-1 in the cell culture medium were measured.

Compound | upregulating GLP-1 protein expression in enteroendocrine cell lines (NCI-H716 and STC-1 cells) | triglyceride levels versus simple high-fat diet group [1] | liver triglyceride [1] | serum triglyceride [1] | release of GLP-1 (level in cell culture medium) (NCI-H716 cells)
C[C@H](CCC(=O)NCCS(=O)(=O)O)[C@H]1CC[C@H]2[C@@H]3[C@H](O)[C@H](O)[C@@H]4C[C@H](O)CC[C@]4(C)[C@H]3CC[C@]12C.[Na] [taurohyocholic acid] | more effective than other bile acids |  |  |  | 
C[C@H](CCC(=O)O)[C@H]1CC[C@H]2[C@@H]3[C@H](O)[C@H](O)[C@@H]4C[C@H](O)CC[C@]4(C)[C@H]3CC[C@]12C [hyocholic acid] | more effective than other bile acids | significantly lower | significant decrease | significant decrease | effectively promote the release of GLP-1
C[C@H](C[C@H](C)C(=O)O)[C@H]1CCC2C3C(CC[C@@]21C)[C@@]1(C)CC[C@@H](O)CC1[C@@H](O)[C@H]3O (stereo partly drawn) [ZN-1-102-1, (S)-23-methyl hyocholic acid] |  |  |  |  | superior to hyocholic acid and the existing TGR5 agonist INT-777
CC(CCC(=O)NCC(=O)O)C1CCC2C3CC(O)C4CC(O)CCC4(C)C3CCC12C (stereo not drawn) [glycohyodeoxycholic acid] | more effective than other bile acids |  |  |  | 
CC[C@H]1[C@@H](O)[C@@H]2[C@H](C[C@H](O)[C@]3(C)[C@@H]([C@H](C)C[C@H](C)C(=O)O)CC[C@@H]23)[C@@]2(C)CC[C@@H](O)C[C@@H]12 [INT-777] |  |  |  |  | effectively promote the release of GLP-1
C[C@H](CCC(=O)O)[C@H]1CC[C@H]2[C@@H]3C[C@H](O)[C@@H]4C[C@H](O)CC[C@]4(C)[C@H]3CC[C@]12C [hyodeoxycholic acid] | more effective than other bile acids | significantly lower | significant decrease | significant decrease | 
C[C@H](CCC(=O)NCCS(=O)(=O)[O-])[C@H]1CC[C@H]2[C@@H]3C[C@H](O)[C@@H]4C[C@H](O)CC[C@]4(C)[C@H]3CC[C@]12C.[Na+] [taurohyodeoxycholic acid] | more effective than other bile acids |  |  |  | 
C[C@H](CCC(=O)NCC(=O)O)[C@H]1CC[C@H]2[C@@H]3[C@H](O)[C@H](O)[C@@H]4C[C@H](O)CC[C@]4(C)[C@H]3CC[C@]12C [glycohyocholic acid] | more effective than other bile acids |  |  |  | 

Reference: US12491190B2, “Bile acid derivative, composition and application thereof” (SHENZHEN YUNHE PHARMACEUTICAL TECHNOLOGY PARTNERSHIP …, priority 2019, dated 2025)
